How the values were obtained:
Format in all cases: cell-based, human
Hs68 cells = assay: HGF in medium and cells of Hs68 cells with or without TPA; details: 10 nM TPA alone
Description: Hs68 cells (human newborn foreskin fibroblasts: manufactured by DAINIPPON PHARMACEUTICAL CO., LTD., ATCC CRL-1635) cultured in a DMEM medium containing 10% fetal bovine serum were suspended in the DMEM medium containing 10% fetal bovine serum so as to have a concentration of 1 × 10^5 cells/ml, and added into each well of a 48-well cell culture plate in a volume of 500 µl each. The cells were cultured for 24 hours. Thereafter, the medium was exchanged for a DMEM medium containing 1% fetal bovine serum, and thereto were added 10 nM TPA and each sample. Also, the same steps were carried out for the group added with only the sample without adding TPA. The medium was collected, and the amount of HGF in the medium was determined by using Quantikine Human Hepatocyte Growth Factor (HGF) ELISA Kit. Further, the cells were washed with PBS, and thereafter dissolved in 500 µl of a cytolytic buffer (50 mM HEPES, pH 7.4; 10 mM EDTA; 0.1% Triton X100; 1 mM PMSF; 1 µg/ml pepstatin A and 1 µg/ml leupeptin). Further, in order to completely dissolve the cells, the mixture was subjected to sonication treatment, and then centrifuged, to give a supernatant (cell extract). The amount of HGF in the cell was determined in the same manner as that of the concentration of HGF in the medium. 7-12SFd-F prepared in item (3) of Reference Example 2 was added so as to have a final concentration of 0.1, 1, 10 or 100 µg/ml. As a negative control, distilled water was added in the same volume as that of the sample. Each experiment was carried out three times, and an average value was taken. In the TPA non-added group, a remarkable production of HGF could not be found. […] In addition, the increase in the amount of HGF when mRNA is increased as described above was very remarkable, as compared to the case where the amount of mRNA is small with no TPA treatment. It was clarified from the above that 7-12SFd-F remarkably promotes the freeing and production of HGF in a case where transcription of mRNA is promoted, so that a large amount of HGF is required.

NHDF cells [1] = assay: HGF in medium and cells of NHDF cells with or without TPA; details: 10 nM TPA alone
NHDF cells [2] = assay: HGF mRNA in NHDF cells (RT-PCR); details: 10 nM TPA, at any time periods (4 to 10 hours)
Description: NHDF cells (normal human dermal fibroblasts) cultured in a DMEM medium containing 10% fetal bovine serum were suspended in the DMEM medium containing 10% fetal bovine serum so as to have a concentration of 2.5 × 10^5 cells/ml, and added into each well of a 6-well cell culture plate in a volume of 2 ml each. The cells were cultured at 37°C for 24 hours in the presence of 5% CO2. Thereafter, the medium was exchanged for a DMEM medium containing 1% fetal bovine serum, and thereto were added 10 nM tetradecanoylphorbol 13-acetate (TPA: manufactured by Gibco BRL) and 7-12SFd-F prepared in item (3) of Reference Example 2 each so as to have a final concentration of 100 µg/ml. Also, the same steps were carried out for the group added with only 7-12SFd-F without adding TPA. The cells were further cultured, and a whole RNA was extracted on Hours 4, 6, 8 and 10. In the extraction of the whole RNA, RNeasy Mini Kit (QIAGEN) was used. RT-PCR was carried out entirely in the same manner as that in Example 14, except for changing the cycles for PCR to 28 cycles. After the reaction, the reaction mixture was subjected to electrophoresis on a 2% agarose gel and ethidium bromide staining, and the gel was observed under UV irradiation.

HL60 cells [3] = assay: HGF in medium and cells of HL60 cells with or without TPA; details: 10 nM TPA alone, 24 h
Description: HL60 cells (human promyelocytic leukemia cell line) cultured in an RPMI 1640 medium containing 10% fetal bovine serum were suspended in an RPMI 1640 medium containing 1% fetal bovine serum so as to have a concentration of 5 × 10^5 cells/ml, and added into each well of a 48-well cell culture plate in a volume of 500 µl each. There after, 10 nM TPA was added thereto, and each sample was further added, and the cells were then cultured for 24 hours. Also, the same steps were carried out for the group added with only the sample without adding TPA. The medium was collected, and the amount of HGF in the medium was determined by using the Quantikine Human Hepatocyte Growth Factor (HGF) ELISA Kit. Further, the cells were washed with PBS, and thereafter dissolved in 500 µl of a cytolytic buffer (50 mM HEPES, pH 7.4; 10 mM EDTA; 0.1% Triton X100; 1 mM PMSF; 1 µg/ml pepstatin A and 1 µg/ml leupeptin). Further, in order to completely dissolve the cells, the mixture was subjected to sonication treatment, and then centrifuged, to give a supernatant (cell extract). The amount of HGF in the cells was determined in the same manner as that of the concentration of HGF in the medium. 7-12SFd-F prepared in item (3) of Reference Example 2 was added so as to have a final concentration of 1, 10 or 100 µg/ml. As a negative control, distilled water was added in the same volume as that of the sample. Each experiment was carried out three times, and an average value was taken.

HL60 cells [4] = assay: HGF mRNA in HL60 cells (RT-PCR); details: 10 nM TPA, at any time periods (4 to 10 hours)
Description: HL60 cells (human promyelocytic leukemia cell line) cultured in an RPMI 1640 medium containing 10% fetal bovine serum were suspended in an RPMI 1640 medium containing 1% fetal bovine serum so as to have a concentration of 5 × 10^5 cells/ml, and added into each well of a 6-well cell culture plate in a volume of 2 ml each. Thereafter, 10 nM TPA and 7-12SFd-F prepared in item (3) of Reference Example 2 were added each so as to have a final concentration of 100 µg/ml. Also, the same steps were carried out for the group added with only 7-12SFd-F without adding TPA. The cells were further cultured, and a whole RNA was extracted on Hours 4, 6, 8, and 10. In the extraction of the whole RNA, RNeasy Mini Kit (manufactured by QIAGEN) was used. RT-PCR was carried out entirely in the same manner as that in Example 14, except for changing the cycles for PCR to 32 cycles. After the reaction, the reaction mixture was subjected to electrophoresis on a 2% agarose gel and ethidium bromide staining, and the gel was observed under UV irradiation.

CCCCCCCCCCCCCC(=O)O[C@@H]1[C@@H](C)[C@@]2(O)[C@@H](C=C(CO)C[C@]3(O)C(=O)C(C)=C[C@@H]23)[C@@H]2C(C)(C)[C@]12OC(C)=O [TPA, 12-O-tetradecanoylphorbol 13-acetate]
Amount of HGF in Cells (Hs68 cells): 155.65 pg/Well
Amount of HGF in Medium (Hs68 cells): 65.54 pg/Well
Total Amount of HGF (Hs68 cells): 221.19 pg/Well
Amount of HGF in Cells (NHDF cells [1]): 0.24 ng/Well
Amount of HGF in Medium (NHDF cells [1]): 0.39 ng/Well
Total Amount of HGF (NHDF cells [1]): 0.63 ng/Well
amount of HGF mRNA (NHDF cells [2]): remarkably increased
Amount of HGF in Cells (HL60 cells [3]): 83.37 pg/Well
Amount of HGF in Medium (HL60 cells [3]): 261.60 pg/Well
Total Amount of HGF (HL60 cells [3]): 344.97 pg/Well
amount of HGF mRNA (HL60 cells [4]): remarkably increased
